{"source": "patent EP1658050B1", "about": "“SELF-NANOEMULSIFYING OILY FORMULATION FOR THE ADMINISTRATION OF POORLY WATER-SOLUBLE DRUGS” (Novagali Pharma S.A., priority 2003, dated 2005)", "key": {"[1]": {"experiment": "Pharmacokinetic study of oral paclitaxel emulsions after cyclosporin A oral pretreatment (paclitaxel plasma levels by HPLC-UV)", "assay_type": "in vivo, FVB Wild-type mice", "conditions": "intravenous 10 mg/kg paclitaxel; with versus without 10 mg/kg oral CsA; wild-type mice", "method": "Strains: FVB Wild-type mice Source: Breeding stocks of the animal facility of the Netherlands Kancer Institute (NKI) Age: 8-14 weeks Body weight: 18-30 gram Gender: Female Housing: Animal Department of the NKI\nCyclosporin A (Sandimmun®) was diluted 1:25 in water for injection to yield a final concentration of 2 mg/mL. A volume of 5 µL per gram body weight was administered to the animals resulting in a dose of 10 mg/kg of cyclosporin A.\nEach cohort through 1 to 3 consisted of 20 Wild-type mice and cohorts.\nCohorts 4 and 5 are reference groups for the calculation of the bioavailability and consisted of 24 animals per cohort.\nOral drug administrations was done by stainless steel gavage using a glass syringe (250 µl: Hamilton luer tip) or a disposable polypropylene syringe (1 ml). The gavage was inserted via the oesophagus into the stomach.\nIntravenous drug administrations were done by injection into the tail vein using a disposable polypropylene syringe (300 µl) provided with fixed 29 g needle. […]\nPlasma concentration data were reported. Plasma concentrations versus time curves were fitted using the MEDI\\WARE software package (version 3.0) and pharmacokinetic parameters: Area under the plasma concentration-time curve (AUC), Maximum plasma level (Cmax), Elimination half-life (t1/2) and Biological availability (F) were calculated."}, "[2]": {"conditions": "humans; after oral paclitaxel administration; cited from earlier work"}}, "data": [{"smiles": "CC(=O)O[C@H]1C(=O)[C@@]2(C)[C@H]([C@H](OC(=O)c3ccccc3)[C@]3(O)C[C@H](OC(=O)[C@H](O)[C@@H](NC(=O)c4ccccc4)c4ccccc4)C(C)=C1C3(C)C)[C@]1(OC(C)=O)CO[C@@H]1C[C@@H]2O", "note": "[paclitaxel, Paclitaxel]", "values": [{"measurement": "increase of intravenously administered paclitaxel AUC by oral pre-treatment with cyclosporin A", "setting": "[1]", "value": 2.35, "unit": "fold"}, {"measurement": "systemic bioavailability", "setting": "[2]", "value": "less than 6%"}]}]}
